Earlier results in article PMC5937704 (Biochemistry, 2018).

Columns and labels:
[1] = system: bromodomain 2 (BD2) of TAF1
[2] = system: bromodomain 1 (BD1) of TAF1

Compound: CCOC(=O)Nc1cc(-c2ccc(C)c(NS(C)(=O)=O)c2)nn2c(C)nnc12 [BSP, Bromosporine]
- affinity for BD2 of TAF1 [1]: nanomolar affinity
- affinity for BD1 of TAF1 [2]: significantly weaker (micromolar) affinity
